Measurements: PMC4601023, “Novel anticancer agent, SQAP, binds to focal adhesion kinase and modulates its activity” (Scientific Reports, 2015)

How the values were obtained:
[1] = molecular target: T1, HR23B (Homo sapiens, UniProt P54727); experiment: SPR analysis, immobilized GST-HR23B (GST control subtracted); assay type: binding; details: no kinetic analysis
T1 construct: ADRM1 and HR23B human full length proteins were purchased; purchased Abnova (Taipei, Taiwan)
From the text: SPR was utilized as an independent confirmation of the kinetic parameters between SQAP and the putative binding proteins. […] The recombinant proteins were then expressed in Escherichia coli and purified to homogeneity. In addition, full length, His-tagged ADRM1 and GST-tagged HR23B (GST-HR23B) were also used. The proteins were first immobilized on a CM5 sensor chip of the SPR biosensor (Biacore 3000). For GST-HR23B analysis, a GST protein was additionally immobilized and used as a control in order to eliminate possible nonspecific binding of SQAP. SQAP samples at different concentrations were then injected over the proteins immobilized on the sensor chip. As a negative control we used sulfoquynovosylpropanediol (SQP), which lacks the fatty acid moiety of SQAP (Fig. 1). […]
The binding kinetics of SCP-2, MFE-2, ADRM1, HR23B and FAK with SQAP and SQP were analyzed on a Biacore 3000 instrument (GE Healthcare, Little Chalfont, UK). […] The buffer of purified peptides was exchanged to HBS-P (150 mM NaCl, 0.005% Surfactant P20, 10 mM HEPES-NaOH pH 7.4) using a PD 10 column (GE Healthcare, Little Chalfont, UK) and the concentrations were quantified using DC protein assay kit (Bio-Rad Laboratories, Hercules, CA, USA). […] Kinetic parameters were determined by analyzing the data using BIAevaluation 4.1 software (GE Healthcare, Little Chalfont, UK).

[2] = test system: A549 cells; experiment: In vitro cell migration assay (Oris kit), A549; assay type: cell-based, human; details: A549, 96 well cell migration kit
Method: Figure 6 SQAP inhibits cell migration in vitro. (A) HUVEC cells were seeded and grown to 100% confluence in 60-mm diameter dishes. After generating a single scratch in the monolayer, the cells were cultured for 11 h in medium containing 1% FBS and VEGF (50 ng/mL) in the presence or absence of SQAP. Photographs were taken immediately after 11 h. (B) The change in wound width was measured as described in the Materials and Methods. (C) A549 cells were seeded and grown to 100% confluence in 60-mm diameter dishes. After generating a single scratch in the monolayer, the cells cultured for the 25 h in media containing 1% FBS and fibronectin (10 μg/ml) treated with SQAP or vehicle. Photographs were collected immediately after wounding and after 25 h. (D) The change in wound width was measured as described in the Materials and Methods. Cell migration was additionally examined in 96 well plates. HUVEC (E) and A549 cells (F) were seeded and grown into confluence overnight. […] The fluorescent emission signal was obtained with a plate reader. […]
Wound healing was additionally assessed in HUVEC or A549 cells using a cell migration kit (Oris, Madison, WI, USA) as described by the manufacturer. […] The fluorescence emission signal in the migration zones was measured on a Wallac Arvo 5x microplate reader (Perkin Elmer, Waltham, MA, USA).

T1 sequence (P54727 whole entry): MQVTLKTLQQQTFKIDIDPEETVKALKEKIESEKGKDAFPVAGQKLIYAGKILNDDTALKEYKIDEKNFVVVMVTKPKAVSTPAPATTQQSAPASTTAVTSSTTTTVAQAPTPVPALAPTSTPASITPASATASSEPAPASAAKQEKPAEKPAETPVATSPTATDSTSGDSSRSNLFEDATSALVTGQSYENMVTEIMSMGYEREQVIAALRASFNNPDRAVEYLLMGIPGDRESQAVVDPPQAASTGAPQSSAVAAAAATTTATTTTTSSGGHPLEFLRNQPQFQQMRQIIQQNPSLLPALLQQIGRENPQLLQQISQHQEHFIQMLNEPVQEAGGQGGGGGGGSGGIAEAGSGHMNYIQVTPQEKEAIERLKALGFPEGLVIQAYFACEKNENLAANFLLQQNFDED

In the case of `CCCCCCCCCCCCCCCCCC(=O)OCCCO[C@H]1O[C@H](CS(=O)(=O)O)[C@@H](O)[C@H](O)[C@H]1O` [SQAP, sulfoquynovosylacylpropanediol], the “binding to HR23B (SPR response)” value [1] was “specific binding response of SQAP in a dose-dependent manner” and the cell migration [2] was “arrested”.
